Source: patent US20150010498A1, “Immunocytokines for Cancer Treatment in Combination with Chemotherapeutic Agents” (Philogen S.p.A., priority 2007, published 2015)

Assays:
[1] = test system: MDA-MB-231 human breast cancer cells; experiment: Biodistribution of radioiodinated F16-IL2 after doxorubicin pre-injection; type: in vivo, Balb/c nude female mice; settings: radioiodinated F16-IL2 i.v., sacrifice 24 h after injection; 10 mg/kg doxorubicin i.v. 8 days, 24 h or 2 h before; FIGS. 1 to 4
Description: The in vivo targeting performance was evaluated by biodistribution analysis. Tumor-bearing mice were obtained by injecting 10̂7 MDA-MB-231 human breast cancer cells s.c. in 10- to 12-week old Balb/c nude female mice (Charles River Laboratories). Mice were grouped (n≧5) when tumors were clearly palpable and injected i.v. in the lateral tail vein with 10 mg/kg doxorubicin 8 days, 24 h or 2 h prior to biodistribution. The control group was exempted from doxorubicin administration. Purified F16-IL2 was radioiodinated and injected into the lateral tail vein of all mice. Mice were sacrificed 24 h after injection (12.5 μg, 3.3 μCi per mouse). Organs were weighed and radioactivity was counted with a Packard Cobra gamma counter. Radioactivity content of representative organs was expressed as the percentage of the injected dose per gram of tissue (%ID/g).

[2] = test system: tubulin; settings: compared with paclitaxel; cited from earlier work
[3] = test system: MDA-MB-231 human breast cancer cells; experiment: Therapy of MDA-MB231 human breast cancer model implanted in nude mice (tumor growth); type: in vivo, Balb/c nude female mice; settings: 4 mg/kg versus 1 mg/kg doxorubicin i.v.; FIG. 5
Description: Tumor-bearing mice were obtained by injecting 2*10̂7 MDA-MB-231 human breast cancer cells s.c. in 10- to 12-week old Balb/c nude female mice (Charles River Laboratories). Mice were grouped (n=5) 9 days after tumor cell implantation when tumors were clearly palpable and injected i.v. in the lateral tail vein with saline, 20 μg F16-IL2 (corresponding to 6.6 μg IL2), 6.6 μg recombinant IL2 (Proleukin®, and 4 mg/kg or 1 mg/kg Doxorubicin in a maximum volume of 250 μl. Mice were monitored daily and tumor growth was measured three times weekly with a caliper using the following formula: volume=length×width2×0.5. Animals were sacrificed when tumors reached a volume >2000 mm3 or when tumors became necrotic according to Swiss regulations and under a project license granted by the
Veterinäramt des Kantons Zürich (198/2005). Tumor sizes are expressed as mean±SE.
Tumor-bearing mice produced in the same way were injected i.v. in the lateral tail vein with saline, 20 μg F16-IL2 (corresponding to 6.6 μg IL2), and 1 mg/kg or 5 mg/kg taxol™ in a maximum volume of 250 μl. Mice were monitored and tumor growth measured as described above.

For “F16-IL2: antibody-IL2 conjugate: interleukin 2 conjugated to the anti-tenascin-C antibody 4A1-F16 (VH SEQ ID NO. 2, VL SEQ ID NO. 4)”, the “tumor targeting of the immunocytokine (biodistribution, %ID/g)” value [1] was “does not impair the tumor targeting”.

For A-nor-paclitaxel, the “tubulin-assembly activity relative to paclitaxel” value [2] is given as “only three times less than that of paclitaxel”.

For `COc1cccc2c1C(=O)c1c(O)c3c(c(O)c1C2=O)C[C@@](O)(C(=O)CO)C[C@@H]3OC1CC(N)C(O)C(C)O1` (stereo partly drawn) [doxorubicin, (8S, 10S)-10-(4-amino-5-hydroxy-6-methyl-tetrahydro-2H-pyran-2-yloxy)-6,8,11-trihydroxy-8-(2-hydroxyacetyl)-1-methoxy-7,8,9,10-tetrahydrotetracene-5,12-dione], the “effect of doxorubicin dose on efficacy” value [3] was “higher doses of doxorubicin were even more effective than low doses”.
